How the values were obtained:
Type in all cases: physicochemical
[1] = Kinematic viscosity of surfactant base formulation with added agent (calibrated Cannon viscometers); conditions: for Kinematic viscosity at 40 C., 2% oil: 2% agent in base formulation; for Lowest viscosity achieved: kinematic viscosity at 40° C., lowest over 2%, 4%, 6%, 8% agent in base formulation (24% sodium undecyl sulfate, 6% lauramidopropyl betaine, 1.6% perfume); for Kinematic viscosity at 40 C., 4% oil: 4% agent in base formulation; for Kinematic viscosity at 40 C., 6% oil: 6% agent in base formulation; for Kinematic viscosity at 40 C., 8% oil: 8% agent in base formulation
Description: Referring to Tables 1 and 2, the base formulations were made by mixing 1.6% perfume, 24% sodium undecyl sulfate (CAS#1072-24-8) active, 6% lauramidopropyl betaine (CAS#4292-10-8) active and 60.4% deionized water which leaves 8% unfilled for the addition of a viscosity reducing agent (the balance being filled in by distilled water). For all compositions, the surfactant, water and additives including viscosity reducing agents were expected to be in a single phase.
The agents from Tables 1 and 2 were added to the base formulation at a percentage of 2%, 4%, 6%, and 8% into the above surfactant solution. The subsequent formulations were vortexed and put into oven at 60° C. overnight to form homogeneous solution. The viscosities of the formulations were measured with calibrated viscometers (Size 200/350/450) from Cannon Instrument Company (2139 High Tech Road, State College, Pa., USA, 16803).
After the equilibration, the formulations were drawn to reach the starting mark with a rubber suction bulb and the flow time between the starting mark and end mark was recorded for calculation. Each formulation was measured three times to calculate average and standard deviation. Between samples, viscometer was cleaned with water and acetone to rinse off residual.
Viscosity values were calculated based on the equation:
Viscosity (mm^2/s (cSt))=Time (s)*Constant (mm^2/s^2·(cSt/s))
The time in the above equation is the flow time recorded in the experiment and the constant numbers for each calibrated viscometer were obtained from the manuals.

[2] = SAXS correlation length of the micelles; conditions: for Change in correlation length compared to control: control 51 A
Description: Now referring to Table 4, SAXS (Small angle x-ray scattering) was used to characterize the structure of the surfactant aggregates. For these set of samples, the broad peak represents the correlation length (CL) of the micelles and was used to differentiate between the different formulations.
SAXS data was collected with a Bruker NanoSTAR (Bruker AXS Inc., Madison, Wis., U.S.A.) using the micro-focus, Cu x-ray tube, operating at 45 kV, 0.650 mA. The sample to detector distance was 112.050 cm and the detector was Vantec2K 2-dimensional area detector. Samples were placed in 2 mm quartz capillaries, sealed with expoxy resin to prevent evaporation. The sealant is permitted to cure for 2 hours at RT (room temperature) prior to loading into the SAXS sample chamber for data acquisition under vacuum with a data collection time of 1200 s. The data acquisition angular range is 0.3° to 3.0° […], to observe the presence and location of any intensity bands in the x-ray scattering pattern.
Each raw 2-D SAXS data is integrated azimuthally and plotted versus the scattering vector (q), which is expressed as a […] in units of angstroms (1/Å). • The values for q are calculated by the SAXS instrument according to the following equation: […]
Where: 2θ is the scattering angle; and λ is the wavelength used. For each formulation analyzed, the location of each intensity peak on the plot of (Intensity) I vs q is identified and recorded.

[3] = NMR self-diffusion coefficients and specific diffusivity ratio; conditions: for Specific diffusivity ratio measured at 4%: diffusion coefficient of the viscosity reducing agent/diffusion coefficient of the surfactant, 4% additive; for Diffusion Coefficient (m^2/s) surfactant at 4% additive: surfactant self-diffusion
Procedure: Now referring to Table 5, the specified viscosity reducing agents were added to the formula at a level of 4% in absence of other viscosity reducing agents. Diffusion coefficients were determined using a vendor-supplied pulse sequence (“ledbpgq2s”, stimulated echo with bipolar gradients and convection compensation) using a Bruker Avance 700 MHz NMR spectrometer equipped with a Diff-30 high gradient diffusion probe. Gradient pulse durations ranged between 1700-2700 us, with diffusion periods ranging from 50-100 ms. 32 linearly-spaced gradient values were used ranging from 2%-95% of 40 A current, with resulting gradient strengths given by 30 Gauss/cm/A. Data were processed using software written in-house. It is often necessary to fit more than one diffusion coefficient to individual signals. Average diffusion coefficients are reported in these cases. Averages were calculated by averaging the reciprocals of the diffusion coefficients and then taking the reciprocal of that average.
The specific diffusivity ratio is calculated as the ratio of the diffusion coefficient of the viscosity reducing agent/diffusion coefficient of the surfactant.
Two mechanisms of viscosity reduction are hypothesized based on self-diffusion coefficients. This leads to a simple diagnostic measurement to classify perfumes by their mechanism of viscosity reduction. That diagnostic is the ratio of the perfume self-diffusion coefficient to the surfactant self-diffusion coefficient (specific diffusivity ratio). In mechanism 1, the surfactant diffusion coefficient is not reduced, and may be increased, while the perfume diffusion coefficient is faster still. In mechanism 2, the surfactant and perfume diffusion coefficient are reduced to relatively small, nearly equal values. For mechanism 1, the viscosity reducing agent diffuses faster than the surfactant (specific diffusivity ratio>1), whereas for mechanism 2, the viscosity reducing agent diffuses slower than the surfactant (specific diffusivity ratio<1).

CCC(=O)O[C@@H]1C[C@H]2CC[C@]1(C)C2(C)C (racemic) [Iso Bornyl Propionate]
Kinematic viscosity at 40 C., 2% oil [1]: 463.1 cSt
Lowest viscosity achieved [1]: 463 cSt

CCCCCCCC(OC)OC [1,1-Dimethoxyoctane]
Kinematic viscosity at 40 C., 2% oil [1]: 500.7 cSt
Kinematic viscosity at 40 C., 4% oil [1]: 308.1 cSt
Lowest viscosity achieved [1]: 308 cSt

CC(C)CC=C(C=O)C(C)C [2-Isopropyl-5-methyl-2-hexenal]
Kinematic viscosity at 40 C., 2% oil [1]: 332.3 cSt
Lowest viscosity achieved [1]: 332 cSt

CC(=O)OCCC(C)CCCC(C)C (stereo not drawn) [3,7-Dimethyloctyl Acetate]
Kinematic viscosity at 40 C., 2% oil [1]: 445.7 cSt
Lowest viscosity achieved [1]: 446 cSt

CCC(CC(C)CC)=NO (stereo not drawn) [5-Methyl-3-Heptanone Oxime]
Kinematic viscosity at 40 C., 2% oil [1]: 246.3 cSt
Lowest viscosity achieved [1]: 246 cSt

COc1ccc(C=O)cc1 [Anisic aldehyde]
Correlation length peak [A] ([2]; 2% oil): 51 A
Change in correlation length compared to control ([2]; 2% oil): 0.0%
Correlation length peak [A] ([2]; 4% oil): 51 A
Change in correlation length compared to control ([2]; 4% oil): 0.0%
Specific diffusivity ratio measured at 4% [3]: 3.3012
Diffusion Coefficient (m^2/s) surfactant at 4% additive [3]: 1.8945E−11 m^2/s

CCCCOC(=O)c1ccccc1O [Butyl Salicylate]
Kinematic viscosity at 40 C., 2% oil [1]: 367.9 cSt
Lowest viscosity achieved [1]: 368 cSt

CC12CCC(CC1=O)C2(C)C (stereo not drawn) [Camphor Gum]
Kinematic viscosity at 40 C., 2% oil [1]: 365.8 cSt
Kinematic viscosity at 40 C., 4% oil [1]: 127.2 cSt
Lowest viscosity achieved [1]: 127 cSt

CC(=O)OCCC(C)CCC=C(C)C (stereo not drawn) [Citronellyl Acetate]
Kinematic viscosity at 40 C., 2% oil [1]: 362.7 cSt
Lowest viscosity achieved [1]: 363 cSt

CCC(=O)OC1CC2CC1C1CC=CC21 (stereo not drawn) [Cyclaprop]
Kinematic viscosity at 40 C., 2% oil [1]: 404.2 cSt
Lowest viscosity achieved [1]: 404 cSt

CCCCCCC1C(=O)CCC1C(=O)OC (stereo not drawn) [Dihyro Iso Jasmonate]
Kinematic viscosity at 40 C., 2% oil [1]: 334.9 cSt
Kinematic viscosity at 40 C., 4% oil [1]: 119.1 cSt
Lowest viscosity achieved [1]: 119 cSt

C=C(C)[C@H]1CC=C(C)CC1 [Dipentene]
Kinematic viscosity at 40 C., 2% oil [1]: 307.6 cSt
Kinematic viscosity at 40 C., 4% oil [1]: 74.5 cSt
Kinematic viscosity at 40 C., 6% oil [1]: 35.1 cSt
Kinematic viscosity at 40 C., 8% oil [1]: 42.6 cSt
Lowest viscosity achieved [1]: 35 cSt

CCO [Ethanol]
Kinematic viscosity at 40 C., 2% oil [1]: 205.6 cSt
Kinematic viscosity at 40 C., 4% oil [1]: 111.0 cSt
Kinematic viscosity at 40 C., 6% oil [1]: 50.8 cSt
Kinematic viscosity at 40 C., 8% oil [1]: 29.2 cSt
Lowest viscosity achieved [1]: 29 cSt
Correlation length peak [A] ([2]; 2% oil): 51 A
Change in correlation length compared to control ([2]; 2% oil): 0.0%
Correlation length peak [A] ([2]; 4% oil): 49 A
Change in correlation length compared to control ([2]; 4% oil): −3.9%

CC(C)=CCC/C(C)=C/COC(=O)Cc1ccccc1 [Geranyl Phenyl Acetate]
Kinematic viscosity at 40 C., 2% oil [1]: 224.0 cSt
Kinematic viscosity at 40 C., 4% oil [1]: 76.0 cSt
Kinematic viscosity at 40 C., 6% oil [1]: 34.3 cSt
Kinematic viscosity at 40 C., 8% oil [1]: 36.6 cSt
Lowest viscosity achieved [1]: 34 cSt
Correlation length peak [A] ([2]; 2% oil): 55 A
Change in correlation length compared to control ([2]; 2% oil): 7.8%
Correlation length peak [A] ([2]; 4% oil): 60 A
Change in correlation length compared to control ([2]; 4% oil): 17.6%
Specific diffusivity ratio measured at 4% [3]: 0.8119
Diffusion Coefficient (m^2/s) surfactant at 4% additive [3]: 3.6554E−12 m^2/s

OCC(O)CO [Glycerin]
Correlation length peak [A] ([2]; 2% oil): 51 A
Change in correlation length compared to control ([2]; 2% oil): 0.0%
Correlation length peak [A] ([2]; 4% oil): 51 A
Change in correlation length compared to control ([2]; 4% oil): 0.0%

CCCCCCCCCCCCCCCC [Hexadecane]
Kinematic viscosity at 40 C., 2% oil [1]: 21.1 cSt
Kinematic viscosity at 40 C., 4% oil [1]: 18.1 cSt
Lowest viscosity achieved [1]: 18 cSt
Correlation length peak [A] ([2]; 2% oil): 59 A
Change in correlation length compared to control ([2]; 2% oil): 15.7%
Correlation length peak [A] ([2]; 4% oil): 66 A
Change in correlation length compared to control ([2]; 4% oil): 29.4%
Specific diffusivity ratio measured at 4% [3]: 0.9998
Diffusion Coefficient (m^2/s) surfactant at 4% additive [3]: 4.1943E−12 m^2/s

CC(C)COC(=O)c1ccccc1O [Iso Butyl Salicylate]
Kinematic viscosity at 40 C., 2% oil [1]: 408.7 cSt
Lowest viscosity achieved [1]: 409 cSt

CCCCCCCCCCCCCC(=O)OC(C)C [Iso Propyl Myristate]
Kinematic viscosity at 40 C., 2% oil [1]: 234.2 cSt
Kinematic viscosity at 40 C., 4% oil [1]: 53.7 cSt
Kinematic viscosity at 40 C., 6% oil [1]: 30.4 cSt
Kinematic viscosity at 40 C., 8% oil [1]: 45.0 cSt
Lowest viscosity achieved [1]: 30 cSt
Specific diffusivity ratio measured at 4% [3]: 0.6401
Diffusion Coefficient (m^2/s) surfactant at 4% additive [3]: 2.1874E−12 m^2/s

CC(C)CCOC(=O)c1ccccc1O [Isoamyl Salicylate]
Kinematic viscosity at 40 C., 2% oil [1]: 460.3 cSt
Kinematic viscosity at 40 C., 4% oil [1]: 193.2 cSt
Lowest viscosity achieved [1]: 193 cSt

CCCCCC(=O)OCC(C)C [Isobutyl Hexanoate]
Kinematic viscosity at 40 C., 2% oil [1]: 390.0 cSt
Kinematic viscosity at 40 C., 4% oil [1]: 177.9 cSt
Kinematic viscosity at 40 C., 6% oil [1]: 140.9 cSt
Kinematic viscosity at 40 C., 8% oil [1]: 109.4 cSt
Lowest viscosity achieved [1]: 109 cSt

COC(C)(C)C1CC=C(C)CC1 (stereo not drawn) [Orange Flower Ether]
Kinematic viscosity at 40 C., 2% oil [1]: 552.2 cSt
Kinematic viscosity at 40 C., 4% oil [1]: 418.8 cSt
Lowest viscosity achieved [1]: 419 cSt

CC1=CC=C(C(C)C)CC1 [alpha-Terpinene]
Kinematic viscosity at 40 C., 2% oil [1]: 324.4 cSt
Kinematic viscosity at 40 C., 4% oil [1]: 96.0 cSt
Kinematic viscosity at 40 C., 6% oil [1]: 41.5 cSt
Kinematic viscosity at 40 C., 8% oil [1]: 46.7 cSt
Lowest viscosity achieved [1]: 42 cSt

CC1=CCC(C(C)C)=CC1 [gamma-Terpinene]
Kinematic viscosity at 40 C., 2% oil [1]: 238.0 cSt
Kinematic viscosity at 40 C., 4% oil [1]: 65.0 cSt
Kinematic viscosity at 40 C., 6% oil [1]: 31.7 cSt
Lowest viscosity achieved [1]: 32 cSt

— patent publication US20160310389A1, “Low Viscosity Hair Care Composition” (The Procter & Gamble Company, priority 2015, published 2016)
